# Results from patent publication US20110162092A1, “COMPOSITION COMPRISED OF AKAP12 AND USES OF AKAP12 MUTANT ZEBRAFISH AS AN ANIMAL MODEL” (SNU RDB FOUNDATION, priority 2008, published 2011).
# What was measured:
# [1] = test system: Human Umbilical Vein Endothelial Cells (HUVEC); assay: In vitro permeability assay using HUVEC (RITC-labeled dextran, transwell); type: cell-based; conditions: AKAP12 siRNA group treated with ROCKOUT, 15 minutes incubation
# ve-cadherin = ve-cadherin expression in HUVEC by western-blotting and immunocytochemistry; type: cell-based, human; conditions: treated with both siRNA regarding AKAP12 and ROCKOUT
# Method: To be specific, in the western-blotting, first, cells were dissolved in lysis buffer containing 10 mM HEPES (pH 7.9), 400 mM NaCl, 0.1 mM EDTA, 5% glycerol, 1 mM DTT (D1-dithiothreitol) and protease inhibitor cocktail, and the proteins in cells were quantified using BCA. From the whole cell lysate prepared as explained above, the proteins in cells were isolated according to molecular weight sizes using sodium dodecyl sulfate-polyacrylamide gel electrophoresis, and the proteins were moved to the polyvinyldifluoride membrane (Millipore). After that, blocking was performed, and the primary antibody was treated overnight (for 16 hours) at 4° C. On the next day, secondary antibodies regarding the primary antibodies were treated at room temperature for 2 hours, respectively, and detected using ECL PLUS (Amersham). As for the primary antibodies, VE-cadherin (Santa Cruz Biotechnology); F-actin (Sigma) were used.
# As for the immunochemistry, first, cells were seeded in a 0.1% gelatin-coated slide, rinsed with cold PBS, and fixed for 10 minutes at room temperature with 4% paraformaldehyde. After that, the cells were rinsed again three times with PBS, treated with 0.5% Triton X-100 for 5 minutes, rinsed with PBS-T and underwent blocking at room temperature for 30 minutes with 0.1% blocking solution (Roche). […]
# [2] = test system: vein endothelial cells of the AKAP12 knockdown zebrafish; assay: Movement of vein endothelial cells of AKAP12 knockdown zebrafish treated with RhoA signal inhibitor; type: in vivo; conditions: 200 uM, 44 hours after fertilization
# [3] = test system: zebrafish AKAP12 alpha form mRNA; assay: Genetic defect (phenotype) of zebrafish after microinjecting morpholino, alpha form; type: in vivo
# Excerpt: (§1) The present inventors prepared morpholino for the zebrafish AKAP12 alpha form mRNA and zebrafish AKAP12 beta form mRNA knockdown. The preparation of the morpholino was ordered to Gene Tools LLC. The method for morpholino preparation is written in Summerton, J. et al., Anti sense & Nucleic Acid Drug Development 7: 187-95, 1997. The prepared morpholino was so prepared to block the characteristic variant regions of each of the alpha and beta forms from binding to the site of splicing and thus block splicing and developing into mature mRNA, in which the alpha form morpholino was so designed to bind adjacent to 339th base of the AKAP12 alpha form as the sequence of […] (SEQ. ID. NO. 7) 25-mer, and the beta form morpholino was so designed to bind adjacent to the 227th base of the AKAP12 beta form as the sequence of […] (SEQ. ID. NO. 8) 25-mer (see FIG. 1).
# (§2) The present invention knocked down zebrafish AKAP12 mRNA by microinjecting the prepared morpholino of <Example 3> into the zebrafish and observed the phenotype.
# (§3) First, the inventors microinjected 7 ng and 10 ng of morpholino for AKAP12 mRNA alpha form, and microinjected 7.5 ng of morpholino for AKAP12 mRNA beta form.
# (§4) Further, after injecting 3.7 ng, 7.5 ng and 10 ng of morpholino for zebrafish AKAP12 alpha and beta forms, the present inventors could confirm that the genetic defect appears in the beta form at about 7.5 ng and alpha form at about 3.7 ng (see FIG. 4).
# AKAP12 alpha form mRNA = assay: Zebrafish defect patterns in accordance with morpholino amount, alpha form; type: in vivo
# Excerpt: (§5) The present inventors knocked down AKAP12 alpha form mRNA and beta form mRNA using morpholino for zebrafish AKAP12 alpha and beta forms, and observed the defect patterns in accordance with the amounts of morpholino, respectively.
# [4] = test system: zebrafish AKAP12 alpha form; assay: Heart defect of AKAP12 alpha form knockdown tg(cmlc:egfp) zebrafish; type: in vivo; conditions: 3.7 ng morpholino, 1.5 days later
# Method: The present inventors knocked down zebrafish AKAP12 alpha form using the transgenic zebrafish ‘tg(cmlc:egfp)’ in which green fluoresces characteristically to the light chain of the heat muscles, and observed the heart defects of the zebrafish. That is, the inventors knocked down the zebrafish AKAP12 alpha form by microinjecting 3.7 ng of morpholino for zebrafish AKAP12 alpha form into the transgenic zebrafish (‘tg(cmlc:egfp)’) embryos, and observed the hearts of the zebrafish after 1.5 days later using the LSM 510 META NLO confocal microscope Carl Zeiss, Germany).
# [5] = test system: zebrafish AKAP12 alpha form; assay: Vessel defects of AKAP12 knockdown tg(fli:egfp) zebrafish; type: in vivo; conditions: 2 ng morpholino; 2000 kDa tetramethylrhodamine-dextran within 48 to 60 hours
# Method: The present inventors knocked down the zebrafish AKAP12 alpha and beta forms using the transgenic zebrafish ‘tg(fli:egfp)’ in which green fluoresces selectively in the endothelioyte of the vessels, and observed the defect pattern in the vessels. To be specific, the inventors knocked down the zebrafish AKAP12 alpha and beta forms by microinjecting 2 ng alpha) and 7.5 ng (beta) of morpholino for zebrafish KAAP12 alpha and beta forms, into the transgenic zebrafish ‘fli:egfp’, respectively, and within 48 to 60 hours, microinjected 25 mg/ml of red-fluorescent lysine-fixable tetramethylrhodamine-dextran, 2000 kDa (molecular probes) and observed through the LSM 510 META NLO confocal microscope (Carl Zeiss, Germany).
# [6] = test system: zebrafish AKAP12 alpha form; assay: Hemorrhage of AKAP12 alpha form knockdown zebrafish; type: in vivo
# Excerpt: (§6) The present inventors observed the embryos of […] AKAP12 alpha and beta form knockdown zebrafish, and as a result, could observe the bleeding in the 2 to 3 day-old zebrafish.
# [7] = test system: zebrafish AKAP12 alpha form; assay: Micro-vasculature defect in brains of AKAP12 alpha form knockdown tg(fli:egfp) zebrafish; type: in vivo; conditions: 3 ng morpholino; 10 kDa tetramethylrhodamine-dextran after 3 days
# Method: The present inventor knocked down the zebrafish AKAP12 alpha form using the transgenic zebrafish ‘tg(fli:egfp)’ in which green fluoresces selectively in the vein endothelial cells, and observed the defect pattern of the micro-vasculatures in brains. To be specific, the inventors knocked down the zebrafish AKAP12 alpha form by microinjecting 3 ng of morpholino for zebrafish AKAP12 alpha form into the transgenic zebrafish (fli:egfp) embryos, and then after 3 days, microinjected 25 mg/ml of red-fluorescent lysine-fixable tetramethylrhodamine-dextran, 10 kDa through the common cardinal vein of the zebrafish, and then observed through the LSM 510 META NLO confocal microscope (Carl Zeiss, Germany).
# [8] = test system: zebrafish AKAP12 beta form mRNA; assay: Genetic defect (phenotype) of zebrafish after microinjecting morpholino, beta form; type: in vivo
# Excerpt: as §1, §2, §3, §4
# AKAP12 beta form mRNA = assay: Zebrafish defect patterns in accordance with morpholino amount, beta form; type: in vivo
# Excerpt: as §5
# [9] = test system: zebrafish AKAP12 beta form; assay: Hemorrhage of AKAP12 beta form knockdown zebrafish; type: in vivo; conditions: 7.5 ng injected, day 3
# Excerpt: as §6
# [10] = morpholino only, control group of rescue test
molecule,measurement,setting,value
c1ccc2c(-c3ccncc3)c[nH]c2c1 [ROCKOUT],RITC permeability,[1],decreased permeability
same,expression of ve-cadherin,ve-cadherin,the expression of ve-cadherin increased back
same,movement of vein endothelial cells,[2],the excessive movement of the vein endothelial cells slowed
"morpholino for zebrafish AKAP12 alpha form: 25-mer morpholino TCTTACCTGTTAGAGTTATTGTCCC (SEQ. ID. NO. 7), binds adjacent to 339th base of AKAP12 alpha form, blocks splicing (all phosphorodiamidate morpholino (PMO))",mRNA expression pattern of AKAP12 alpha form by RT-PCR,"[3]; 7 ng and 10 ng injected, by degree of defect",the zebrafish with severer degree of defects had lower degree of mRNA expression
same,phenotype: tail portions and mobility,[3]; 7 ng and 10 ng microinjected,crooked or shortened tail portions and abnormal mobility
same,defect patterns,[3]; [10],crooked trunks and bleeding
same,defect patterns,"[3]; only 4 ng morpholino, control group of rat mRNA rescue",defect patterns including crooked and shortened tail and deformed hearts
same,defect pattern,AKAP12 alpha form mRNA; 1 ng and 2 ng,bleeding only
same,defect pattern,AKAP12 alpha form mRNA; 4 ng and more,decreasing bleeding due to severe defects of hearts and other veins
same,defect pattern,AKAP12 alpha form mRNA; 3 and 4 ng,both the bleeding and defects in heart and trunk veins
same,heart shape (atriums and ventricles),[4],elongated atriums and ventricles
same,heartbeats,[4],non-uniform and weak heartbeats
same,"defect pattern in the vessels, dextran leakage",[5],non-uniform micro-vasculature in the brains and also the red lysine-fixable tetramethylrhodamine-dextran leaked out of the green vessel
same,rate of zebrafish showing hemorrhage,"[6]; 3 ng injected, day 3",approximately 50%
same,rate of zebrafish with hemorrhage versus amount,"[6]; 1, 2 and 3 ng in sequence",hemorrhage increased as the amount of injected morpholino increased
same,"defect pattern of micro-vasculatures in brains, dextran distribution",[7],non-uniform micro-vasculature in brains and also the red lysine-fixable tetramethylrhodamine-dextran was distributed around the green micro-vasculatures
"morpholino for zebrafish AKAP12 beta form: 25-mer morpholino TACCTTGCCATCTGCGGTTTCTCCA (SEQ. ID. NO. 8), binds adjacent to 227th base of AKAP12 beta form, blocks splicing (all phosphorodiamidate morpholino (PMO))",amount of morpholino at which the genetic defect appears,"[8]; 3.7 ng, 7.5 ng and 10 ng injected",about 7.5 ng
same,phenotype: tail portions and mobility,[8]; 7.5 ng microinjected,crooked or shortened tail portions and abnormal mobility
same,defect patterns,[8]; [10],crooked trunks and bleeding
same,defect pattern,AKAP12 beta form mRNA; 7.5 ng and 8 ng,both the bleeding and defects of heat and trunk veins concurrently
same,defect pattern,AKAP12 beta form mRNA; 9 ng or more,only the defects in heart and trunk veins
same,rate of zebrafish showing hemorrhage,[9],approximately 27%
